Measured values published in ChEMBL document CHEMBL4507296 (2021).

Assays:
[1] = target: Beta-1 adrenergic receptor (Homo sapiens) (UniProt P08588); conditions: Compound concentration 10.0 uM
[2] = target: Muscarinic acetylcholine receptor M1 (Homo sapiens) (UniProt P11229); conditions: Compound concentration 10.0 uM
[3] = target: 5-hydroxytryptamine receptor 1B (Homo sapiens) (UniProt P28222); conditions: Compound concentration 10.0 uM
[4] = target: Muscarinic acetylcholine receptor M4 (Homo sapiens) (UniProt P08173); conditions: Compound concentration 10.0 uM
[5] = target: D(2) dopamine receptor (Homo sapiens) (UniProt P14416); conditions: Compound concentration 10.0 uM
[6] = target: Muscarinic acetylcholine receptor M3 (Homo sapiens) (UniProt P20309); conditions: Compound concentration 10.0 uM
[7] = target: Beta-2 adrenergic receptor (Homo sapiens) (UniProt P07550); conditions: Compound concentration 10.0 uM
[8] = target: Muscarinic acetylcholine receptor M5 (Homo sapiens) (UniProt P08912); conditions: Compound concentration 10.0 uM
[9] = target: D(4) dopamine receptor (Homo sapiens) (UniProt P21917); conditions: Compound concentration 10.0 uM
[10] = target: Muscarinic acetylcholine receptor M2 (Homo sapiens) (UniProt P08172); conditions: Compound concentration 10.0 uM
[11] = target: T1, GABA-A receptor; anion channel (Rattus norvegicus) (UniProt O09028+P15431+P18506+P18508+P19969+P20236+P23574+P23576+P28471+P28473+P30191+P62813+P63079+P63138+Q91ZM7+Q9ES14); conditions: Compound concentration 10.0 uM
[12] = target: 5-hydroxytryptamine receptor 2A (Homo sapiens) (UniProt P28223); conditions: Compound concentration 10.0 uM
[13] = target: Alpha-1D adrenergic receptor (Homo sapiens) (UniProt P25100); conditions: Compound concentration 10.0 uM
[14] = target: Histamine H4 receptor (Homo sapiens) (UniProt Q9H3N8); conditions: Compound concentration 10.0 uM
[15] = target: Sodium-dependent serotonin transporter (Homo sapiens) (UniProt P31645); conditions: Compound concentration 10.0 uM
[16] = target: Sodium-dependent noradrenaline transporter (Homo sapiens) (UniProt P23975); conditions: Compound concentration 10.0 uM
[17] = target: 5-hydroxytryptamine receptor 3A (Homo sapiens) (UniProt P46098); conditions: Compound concentration 10.0 uM
[18] = target: 5-hydroxytryptamine receptor 2B (Homo sapiens) (UniProt P41595); conditions: Compound concentration 10.0 uM
[19] = target: 5-hydroxytryptamine receptor 1A (Homo sapiens) (UniProt P08908); conditions: Compound concentration 10.0 uM
[20] = target: T1, GABA-A receptor; anion channel (Rattus norvegicus); conditions: Compound concentration 10.0 uM; remark: listed apart in the source
[21] = target: Transient receptor potential cation channel subfamily M member 8 (Homo sapiens, UniProt Q7Z2W7); test: Assay (coming soon)
[22] = target: Alpha-2C adrenergic receptor (Homo sapiens) (UniProt P18825); conditions: Compound concentration 10.0 uM
[23] = target: 5-hydroxytryptamine receptor 6 (Homo sapiens) (UniProt P50406); conditions: Compound concentration 10.0 uM
[24] = target: Alpha-1A adrenergic receptor (Homo sapiens) (UniProt P35348); conditions: Compound concentration 10.0 uM
[25] = target: 5-hydroxytryptamine receptor 2C (Homo sapiens) (UniProt P28335); conditions: Compound concentration 10.0 uM
[26] = target: Alpha-1B adrenergic receptor (Homo sapiens) (UniProt P35368); conditions: Compound concentration 10.0 uM
[27] = target: Beta-3 adrenergic receptor (Homo sapiens) (UniProt P13945); conditions: Compound concentration 10.0 uM
Rattus norvegicus = organism: Rattus norvegicus; conditions: Compound concentration 10.0 uM
[28] = target: Histamine H3 receptor (Homo sapiens) (UniProt Q9Y5N1); conditions: Compound concentration 10.0 uM
[29] = target: Mu-type opioid receptor (Homo sapiens) (UniProt P35372); conditions: Compound concentration 10.0 uM
[30] = target: Kappa-type opioid receptor (Homo sapiens) (UniProt P41145); conditions: Compound concentration 10.0 uM
[31] = target: T2, Alpha-2B adrenergic receptor (Homo sapiens) (UniProt P18089); conditions: Compound concentration 10.0 uM
T2 sequence (whole entry): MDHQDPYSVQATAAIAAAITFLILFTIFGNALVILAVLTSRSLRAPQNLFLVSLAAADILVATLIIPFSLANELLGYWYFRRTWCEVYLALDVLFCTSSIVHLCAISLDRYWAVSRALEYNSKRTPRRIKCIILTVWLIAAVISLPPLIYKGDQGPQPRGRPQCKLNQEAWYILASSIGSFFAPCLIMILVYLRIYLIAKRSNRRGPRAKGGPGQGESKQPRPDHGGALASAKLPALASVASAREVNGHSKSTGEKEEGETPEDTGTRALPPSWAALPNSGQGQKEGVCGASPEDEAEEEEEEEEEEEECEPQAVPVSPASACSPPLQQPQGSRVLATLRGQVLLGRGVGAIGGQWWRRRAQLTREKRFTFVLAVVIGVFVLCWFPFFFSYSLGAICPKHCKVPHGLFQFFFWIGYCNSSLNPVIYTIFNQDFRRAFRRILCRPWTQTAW

[32] = target: Delta-type opioid receptor (Homo sapiens) (UniProt P41143); conditions: Compound concentration 10.0 uM
[33] = target: 5-hydroxytryptamine receptor 5A (Homo sapiens) (UniProt P47898); conditions: Compound concentration 10.0 uM
[34] = target: 5-hydroxytryptamine receptor 7 (Homo sapiens) (UniProt P34969); conditions: Compound concentration 10.0 uM
[35] = target: Histamine H1 receptor (Homo sapiens) (UniProt P35367); conditions: Compound concentration 10.0 uM
[36] = target: D(1B) dopamine receptor (Homo sapiens) (UniProt P21918); conditions: Compound concentration 10.0 uM
Sequence of D(1B) dopamine receptor (Homo sapiens) (P21918 whole entry): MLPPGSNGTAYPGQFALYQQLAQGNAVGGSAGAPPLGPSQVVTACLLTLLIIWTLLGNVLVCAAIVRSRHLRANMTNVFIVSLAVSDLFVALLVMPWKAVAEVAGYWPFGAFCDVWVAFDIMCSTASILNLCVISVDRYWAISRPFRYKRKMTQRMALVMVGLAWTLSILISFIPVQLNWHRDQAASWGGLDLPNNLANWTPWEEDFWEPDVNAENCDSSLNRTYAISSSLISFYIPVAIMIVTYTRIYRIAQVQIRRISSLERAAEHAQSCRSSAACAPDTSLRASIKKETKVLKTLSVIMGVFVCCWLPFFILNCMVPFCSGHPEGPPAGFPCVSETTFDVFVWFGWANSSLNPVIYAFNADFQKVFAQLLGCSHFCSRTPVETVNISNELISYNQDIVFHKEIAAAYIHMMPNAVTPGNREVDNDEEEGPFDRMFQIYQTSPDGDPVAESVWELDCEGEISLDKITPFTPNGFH

Sequence of Alpha-1B adrenergic receptor (Homo sapiens) (P35368 whole entry): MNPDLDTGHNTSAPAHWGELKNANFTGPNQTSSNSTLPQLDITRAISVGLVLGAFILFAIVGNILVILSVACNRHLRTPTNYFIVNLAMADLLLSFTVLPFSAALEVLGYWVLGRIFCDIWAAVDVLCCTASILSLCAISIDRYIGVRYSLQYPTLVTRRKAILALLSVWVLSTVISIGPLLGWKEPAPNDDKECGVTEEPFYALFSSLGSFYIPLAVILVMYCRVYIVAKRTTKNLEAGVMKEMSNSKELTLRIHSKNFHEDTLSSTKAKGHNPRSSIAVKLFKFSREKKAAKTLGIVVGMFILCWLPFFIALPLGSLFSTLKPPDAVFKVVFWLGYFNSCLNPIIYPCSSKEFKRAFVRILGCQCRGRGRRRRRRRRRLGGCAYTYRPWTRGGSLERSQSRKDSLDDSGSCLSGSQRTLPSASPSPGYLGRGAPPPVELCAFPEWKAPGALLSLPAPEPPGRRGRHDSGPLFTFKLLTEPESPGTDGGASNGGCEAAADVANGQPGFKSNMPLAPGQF
Sequence of Delta-type opioid receptor (Homo sapiens) (P41143 whole entry): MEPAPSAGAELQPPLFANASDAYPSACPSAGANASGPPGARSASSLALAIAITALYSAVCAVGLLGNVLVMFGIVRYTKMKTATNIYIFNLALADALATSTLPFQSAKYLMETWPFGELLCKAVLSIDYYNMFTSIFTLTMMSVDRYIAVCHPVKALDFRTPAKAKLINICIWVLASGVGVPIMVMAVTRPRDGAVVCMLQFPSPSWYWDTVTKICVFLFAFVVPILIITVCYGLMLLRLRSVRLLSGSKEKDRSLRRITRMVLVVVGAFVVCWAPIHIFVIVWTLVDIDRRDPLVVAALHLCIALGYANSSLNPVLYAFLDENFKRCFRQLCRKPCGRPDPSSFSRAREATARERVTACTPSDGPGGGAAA
Sequence of D(2) dopamine receptor (Homo sapiens) (P14416 whole entry): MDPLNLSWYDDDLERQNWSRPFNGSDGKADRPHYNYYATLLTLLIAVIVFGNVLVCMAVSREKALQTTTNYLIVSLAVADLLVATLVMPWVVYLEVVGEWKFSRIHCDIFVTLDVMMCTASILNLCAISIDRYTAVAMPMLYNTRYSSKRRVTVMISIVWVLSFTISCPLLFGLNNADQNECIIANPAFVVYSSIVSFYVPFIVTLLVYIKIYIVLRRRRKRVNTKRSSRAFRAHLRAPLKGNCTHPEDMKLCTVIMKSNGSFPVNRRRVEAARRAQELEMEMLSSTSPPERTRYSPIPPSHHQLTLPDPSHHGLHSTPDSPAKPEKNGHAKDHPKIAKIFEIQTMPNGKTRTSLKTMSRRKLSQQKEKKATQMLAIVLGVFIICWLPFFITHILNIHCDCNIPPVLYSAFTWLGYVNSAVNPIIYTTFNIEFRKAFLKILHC
Sequence of 5-hydroxytryptamine receptor 2A (Homo sapiens) (P28223 whole entry): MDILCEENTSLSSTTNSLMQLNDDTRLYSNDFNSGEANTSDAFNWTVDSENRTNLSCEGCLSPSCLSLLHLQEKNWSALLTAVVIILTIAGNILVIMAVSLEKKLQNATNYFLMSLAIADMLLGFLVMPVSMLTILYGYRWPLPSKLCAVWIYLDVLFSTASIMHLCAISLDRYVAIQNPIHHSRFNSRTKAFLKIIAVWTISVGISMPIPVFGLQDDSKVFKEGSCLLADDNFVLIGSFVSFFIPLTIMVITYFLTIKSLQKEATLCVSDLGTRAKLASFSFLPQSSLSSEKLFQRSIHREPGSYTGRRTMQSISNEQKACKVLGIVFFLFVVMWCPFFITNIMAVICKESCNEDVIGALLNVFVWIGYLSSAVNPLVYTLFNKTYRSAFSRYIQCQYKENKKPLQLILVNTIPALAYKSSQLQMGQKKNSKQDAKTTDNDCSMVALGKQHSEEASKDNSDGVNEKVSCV
Sequence of 5-hydroxytryptamine receptor 5A (Homo sapiens) (P47898 whole entry): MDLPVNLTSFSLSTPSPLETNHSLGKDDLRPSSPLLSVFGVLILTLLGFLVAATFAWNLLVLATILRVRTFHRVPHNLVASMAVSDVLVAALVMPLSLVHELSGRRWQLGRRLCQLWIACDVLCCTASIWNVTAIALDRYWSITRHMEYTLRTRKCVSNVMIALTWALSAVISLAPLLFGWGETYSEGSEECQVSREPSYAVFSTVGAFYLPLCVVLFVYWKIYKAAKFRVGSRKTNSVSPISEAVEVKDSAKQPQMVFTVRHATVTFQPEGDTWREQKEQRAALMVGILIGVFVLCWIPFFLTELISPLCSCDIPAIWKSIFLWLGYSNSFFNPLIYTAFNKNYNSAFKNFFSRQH
Sequence of Kappa-type opioid receptor (Homo sapiens) (P41145 whole entry): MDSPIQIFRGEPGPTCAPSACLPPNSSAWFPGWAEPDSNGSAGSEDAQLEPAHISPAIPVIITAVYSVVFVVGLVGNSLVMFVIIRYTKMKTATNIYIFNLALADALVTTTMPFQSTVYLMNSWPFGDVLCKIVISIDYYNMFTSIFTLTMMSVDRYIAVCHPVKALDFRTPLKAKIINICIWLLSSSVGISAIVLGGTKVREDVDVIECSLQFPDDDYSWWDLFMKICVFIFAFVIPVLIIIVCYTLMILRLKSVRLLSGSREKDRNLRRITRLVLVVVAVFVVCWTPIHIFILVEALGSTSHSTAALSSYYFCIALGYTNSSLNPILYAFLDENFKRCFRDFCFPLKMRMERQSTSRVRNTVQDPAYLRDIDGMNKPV
Sequence of 5-hydroxytryptamine receptor 2C (Homo sapiens) (P28335 whole entry): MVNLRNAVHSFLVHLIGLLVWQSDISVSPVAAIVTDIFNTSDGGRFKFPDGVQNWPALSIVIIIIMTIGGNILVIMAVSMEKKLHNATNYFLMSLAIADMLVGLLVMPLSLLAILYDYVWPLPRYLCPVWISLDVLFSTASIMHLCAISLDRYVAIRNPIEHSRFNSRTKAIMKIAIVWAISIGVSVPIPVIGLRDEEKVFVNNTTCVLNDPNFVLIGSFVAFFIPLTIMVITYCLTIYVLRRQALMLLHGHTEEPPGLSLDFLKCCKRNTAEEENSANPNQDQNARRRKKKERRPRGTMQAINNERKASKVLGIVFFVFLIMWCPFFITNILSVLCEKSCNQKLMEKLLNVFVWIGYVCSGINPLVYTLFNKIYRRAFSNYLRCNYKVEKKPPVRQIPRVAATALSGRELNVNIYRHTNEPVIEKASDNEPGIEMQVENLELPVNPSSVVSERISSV
Sequence of Muscarinic acetylcholine receptor M4 (Homo sapiens) (P08173 whole entry): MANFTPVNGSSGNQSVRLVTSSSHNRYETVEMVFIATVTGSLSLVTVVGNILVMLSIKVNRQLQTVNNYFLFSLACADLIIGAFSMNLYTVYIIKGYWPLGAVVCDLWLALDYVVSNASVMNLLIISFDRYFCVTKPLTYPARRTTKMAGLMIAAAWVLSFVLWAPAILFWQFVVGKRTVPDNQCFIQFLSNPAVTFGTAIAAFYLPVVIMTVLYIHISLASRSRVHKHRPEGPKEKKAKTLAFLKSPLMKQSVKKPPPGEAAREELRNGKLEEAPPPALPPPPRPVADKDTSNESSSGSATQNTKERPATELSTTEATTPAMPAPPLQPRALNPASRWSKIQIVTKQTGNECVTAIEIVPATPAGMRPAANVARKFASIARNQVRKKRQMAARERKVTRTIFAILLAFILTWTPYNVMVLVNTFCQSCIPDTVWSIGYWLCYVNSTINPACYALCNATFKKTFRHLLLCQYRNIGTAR
Sequence of Beta-1 adrenergic receptor (Homo sapiens) (P08588 whole entry, looked up): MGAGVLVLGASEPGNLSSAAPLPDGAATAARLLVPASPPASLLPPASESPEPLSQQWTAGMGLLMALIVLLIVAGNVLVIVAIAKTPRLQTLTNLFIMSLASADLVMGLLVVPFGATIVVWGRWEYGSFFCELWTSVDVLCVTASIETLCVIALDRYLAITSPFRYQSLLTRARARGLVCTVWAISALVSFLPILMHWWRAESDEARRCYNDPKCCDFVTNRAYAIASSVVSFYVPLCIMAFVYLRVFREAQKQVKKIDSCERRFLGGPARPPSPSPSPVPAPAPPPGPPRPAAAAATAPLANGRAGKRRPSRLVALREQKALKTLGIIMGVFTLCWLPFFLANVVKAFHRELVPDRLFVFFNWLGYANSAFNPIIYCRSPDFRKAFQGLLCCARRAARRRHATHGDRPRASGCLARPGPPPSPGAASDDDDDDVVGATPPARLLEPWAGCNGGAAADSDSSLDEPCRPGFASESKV
Sequence of 5-hydroxytryptamine receptor 1A (Homo sapiens) (P08908 whole entry): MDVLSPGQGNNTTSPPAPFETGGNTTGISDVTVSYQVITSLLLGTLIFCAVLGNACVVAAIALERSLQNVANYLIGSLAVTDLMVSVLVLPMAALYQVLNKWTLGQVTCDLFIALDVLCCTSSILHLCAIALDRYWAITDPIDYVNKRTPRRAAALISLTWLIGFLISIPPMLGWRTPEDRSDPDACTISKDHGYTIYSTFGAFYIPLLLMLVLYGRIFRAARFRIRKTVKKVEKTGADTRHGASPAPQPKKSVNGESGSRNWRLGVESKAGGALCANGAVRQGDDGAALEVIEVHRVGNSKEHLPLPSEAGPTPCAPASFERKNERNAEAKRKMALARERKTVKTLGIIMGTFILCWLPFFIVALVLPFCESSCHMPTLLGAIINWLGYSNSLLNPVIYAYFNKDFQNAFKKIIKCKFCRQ

inhibition [1]: -0.35% | inhibition [2]: 14.5% | inhibition [3]: -7.94% | inhibition [4]: 4.42% | inhibition [5]: -0.95% | inhibition [6]: 39% | inhibition [7]: 24.1% | inhibition [8]: -1.1% | inhibition [9]: 14.9% | inhibition [10]: 1.24% | inhibition [11]: -0.14% | inhibition [12]: -2.34% | inhibition [13]: 10.1% | inhibition [14]: 3.41% | inhibition [15]: -2.63% | inhibition [16]: -9.65% | inhibition [17]: 14.3% | inhibition [18]: 21.8% | inhibition [19]: -3.79% | inhibition [20]: 28.3% | IC50 [21]: > 10 µM (not active) | inhibition [22]: 14.2% | inhibition [23]: 11.3% | inhibition [24]: 11.5% | inhibition [25]: -7.78% | inhibition [26]: -1.36% | inhibition [27]: -5.1% | inhibition (Rattus norvegicus): -9.88% | inhibition [28]: -8.13% | inhibition [29]: 0.07% | inhibition [30]: -0.42% | inhibition [31]: 17.7% | inhibition [32]: 12.4% | inhibition [33]: 1.77% | inhibition [34]: 13.8% | inhibition [35]: -3.13% | inhibition [36]: 12.8%
SMILES: C[C@H](c1ccc(F)cc1)N(Cc1ccc(Cl)c(C(=O)O)c1)C(=O)c1cnc2ccccc2c1 [PF-05257137]
